The structures appear in SMILES notation. Where two headings read alike, the source gives them in different places.

This assay in a line: Suppression test of Experimental Example 1: masking and harmonizing effect in a cup, four expert panelists.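 For harmonizing: score 1 means in harmony 0 indefinite and −1 not in harmony.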 The protocol: In the present invention, the selection of the above component (I), component (II) and component (III) was carried out as follows. That is, one of the pseudo body odor compositions mentioned above and a target fragrance component were mixed and left at room temperature for 30 minutes. Thereafter, evaluations of the masking and harmonizing effects to the acid odor were carried out by four expert panelists.
After 30 minutes, a hole of about 1 cm in diameter was formed in the aluminum foil and the investigations of masking effect and the harmonizing effect were carried out according to following evaluation criteria by four expert panelists.
3: Excellent in the masking.
2: Substantially excellent in the masking.
1: Slightly sensible of the body odor (sweat odor and armpit odor).
0: Sensible of the body odor (sweat odor and armpit odor) (insufficient in the masking)

The mark [1] stands for this setting: 200 μl pseudo body odor composition of Example 4 and 10 μl perfume on filter papers in sealed about 500 ml cup, after 30 minutes, four expert panelists, scale 0-3.
Where [2] appears, read: 200 μl pseudo body odor composition of Example 4 and 10 μl perfume on filter papers in sealed about 500 ml cup, after 30 minutes, four expert panelists, scale −1 to 1.

Consider `CC1CC(C)(c2ccccc2)OC(C)O1` (stereo not shown) [Floropal, 2,4,6-trimethyl-4-phenyl-1,3-dioxane], for which the Masking under setting [1] came out at 1. The molecule further registered a Harmonizing under setting [2] of 0.

Under setting [1], `CCOC(=O)C12CCCC1C1CCC2C1` (stereo not shown) [Fluitate, ethyl tricyclo[5.2.1.0^2,6]decan-2-yl carboxylate] registered a Masking of 1.5 points. Under setting [2], the Harmonizing was −1.

Take `CCOC(=O)CC1(C)OCCO1` [Fraistone, ethyl (2-methyl-[1,3]dioxolane-2-yl) acetate]: the Masking under setting [1] stood at 1. The molecule also returned a Harmonizing under setting [2] of −1.

For `CC(=O)OC/C=C(\C)CCC=C(C)C` [Geranyl acetate], the Masking under setting [1] is recorded as 1. Under setting [2], this molecule returned a Harmonizing of −1.

`CC(C)=CCCC(C)=CC#N` [Geranyl nitrile]: the Masking under setting [1] came out at 3. Under setting [2], this molecule showed a Harmonizing of 1.

With `CC(C=O)Cc1ccc2c(c1)OCO2` (stereo not drawn) [Helional, α-methyl-3,4-methylene dioxyhydrocinnamic aldehyde], the Masking under setting [1] worked out at 1. This molecule also had a Harmonizing under setting [2] of 0.

Under setting [1], `O=Cc1ccc2c(c1)OCO2` [Heliotropine] yielded a Masking of 1.5 points. The Harmonizing under setting [2] was 0.

For `CCCCCC=O` [Hexanal], the Masking under setting [1] is 3. Under setting [2], this molecule returned a Harmonizing of 1.

`CCCCCCOC(=O)c1ccccc1O` [Hexyl salicylate]: under setting [1], the Masking is listed as 1. In addition, the Harmonizing under setting [2] is reported as −1.

In the case of `CC(C)=CCCC1=CCC(C)(C=O)CC1` (stereo not shown) [Homomyracaldehyde, 1-methyl-4-(4-methyl-3-pentenyl)-3-cyclohexen carboxy aldehyde], the Masking under setting [1] amounted to 1. In addition, the Harmonizing under setting [2] was −1.

Regarding `CC(CC=O)CCCC(C)(C)O` (stereo not shown) [Hydroxycitronellal], the Masking under setting [1] is given as 1. Under setting [2], this molecule had a Harmonizing of 0.

Under setting [1], `c1ccc2[nH]ccc2c1` [Indole] registered a Masking of 1.5 points. Under setting [2], this molecule had a Harmonizing of −1.

In the case of `CC(=O)C1(C)CC2=C(CCCC2(C)C)CC1C` (stereo not shown) [Iso E super, 7-acetyl-1,2,3,4,5,6,7,8-octahydro-1,1,6,7-tetramethyl naphthalene], the Masking under setting [1] is on record as 1. Moreover, the Harmonizing under setting [2] is −1.

As for `CC(C)Cc1ccc2ncccc2c1` [Isobutyl quinoline], the Masking under setting [1] was 2. Further, the Harmonizing under setting [2] is listed as 1.

`CC1=CC(C)C(C=O)C(C)C1` (stereo not shown) [Isocyclocitral, trimethyl cyclohexene carbalehyde] gave a Masking under setting [1] of 2.5 points. For the same molecule, the Harmonizing under setting [2] was 1.

The molecule `CCCCCC1COCCC1OC(C)=O` (stereo not shown) [Jasmal, 3-pentyl tetrahydropyranyl acetate] gave a Masking under setting [1] of 1. Further, the Harmonizing under setting [2] is on record as −1.

Turning to `CC(=O)C(C)=C(C)C(C)C(C)(C)C` (stereo not shown) [Koavone, ethylene tetramethyl heptanone], the Harmonizing is recorded as 1 and the Masking is on record as 2.5 points.

Turning to `CC(C)(O)CCCC1=CCC(C=O)CC1` (stereo not shown) [Kovanol, 4(3)-(4-hydroxy-4-methylpentyl)-3-cyclohexene-1-carboxy aldehyde], the Masking under setting [1] is 1. The molecule also yielded a Harmonizing under setting [2] of 0.

In turn, `CC(C)=C[C@@H]1C[C@H](C)CCO1` [L-Rose oxide] returned a Masking under setting [1] of 3. The molecule also registered a Harmonizing under setting [2] of 1.

The molecule `CCC(=CCC1CC=C(C)C1(C)C)CO` (stereo not shown) [Levosandol, 2-ethyl-4-(2,2,3-trimethyl-3-cyclopentene-1-yl)-2-butene-1-ol] returned a Masking under setting [1] of 2.5 points. Also, the Harmonizing under setting [2] turned out to be 1.

In turn, `CC(C=O)Cc1ccc(C(C)(C)C)cc1` (stereo not drawn) [Lilial, p-tert-butyl-α-methyl hydrocinnamic aldehyde] yielded a Harmonizing under setting [2] of 0.

Under setting [1], `C=CC(C)(O)CCC=C(C)C` (stereo not shown) [Linalool] had a Masking of 1. Further, the Harmonizing under setting [2] was found to be 0.

Consider `C=CC(C)(CCC=C(C)C)OC(C)=O` (stereo not shown) [Linalyl acetate], for which the Masking under setting [1] is reported as 1. The molecule further came in with a Harmonizing under setting [2] of −1.

Under setting [1], `CC(C)[C@@H]1CC[C@@H](C)CC1=O` [Mentone] came in with a Masking of 3. Moreover, the Harmonizing under setting [2] came out at 1.

Molecule `COC(=O)c1ccccc1N` [Methyl anthranilate] had a Masking under setting [1] of 2.5 points. Under setting [2], this molecule yielded a Harmonizing of 1.

`COC(=O)c1ccccc1` [Methyl benzoate] came in with a Masking under setting [1] of 3. The same molecule gave a Harmonizing under setting [2] of 1.

On to `CCCCCC1C(=O)CCC1CC(=O)OC` (stereo not shown) [Methyl dihydrojasmonate], for which the Masking under setting [1] was 2. The Harmonizing under setting [2] was found to be 1.

Take `CC(=O)CCC=C(C)C` [Methyl heptenone]: the Masking under setting [1] was determined as 3. Under setting [2], this molecule came in with a Harmonizing of 1.

For the molecule `COC(=O)Cc1ccccc1` [Methyl phenyl acetate], under setting [1], the Masking came out at 2.5 points. The Harmonizing under setting [2] was 1.

Under setting [1], `O=C1CCCCCCCCCCCC(=O)OCCO1` [Musk T, ethylene brassylate] showed a Masking of 0.5 points. Moreover, under setting [2], the Harmonizing is recorded as −1.

For `CC(C)[C@H]1CC[C@@H](CO)CC1` [Myol, cis-p-isopropylcyclohexyl methanol], the Masking under setting [1] was found to be 1. In addition, the Harmonizing under setting [2] is −1.

As for `CC(C)=CCCC1=CCC(C=O)CC1` (stereo not shown) [Myracaldehyde, 4-(4-methyl-3-pentenyl)-3-cyclohexene-1-carbaldehyde], the Masking under setting [1] was 1.5 points. This molecule had a Harmonizing under setting [2] of 0.

As to `CCCCCCCCC=O` [Nonanal], under setting [1], the Masking is listed as 1.5 points. For the same molecule, the Harmonizing under setting [2] is listed as −1.

Turning to `CCCCCCCC=O` [Octanal], the Masking under setting [1] worked out at 3. The molecule also showed a Harmonizing under setting [2] of 1.

`O=C1CCCCCCCCOCCCCCCO1` [Oxalide, 10-oxa-16-hexadecanolide] came in with a Masking under setting [1] of 0. This molecule also came in with a Harmonizing under setting [2] of −1.

Molecule `O=CCc1ccccc1` [Phenyl acetoaldehyde] returned a Masking under setting [1] of 3. This molecule also displayed a Harmonizing under setting [2] of 1.

Regarding `COC(Cc1ccccc1)OC` [Phenylactoaldehyde dimethylacetal], the Masking under setting [1] amounted to 2. The Harmonizing under setting [2] is reported as 1.

On to `CC(=O)OCCc1ccccc1` [Phenylethyl acetate], for which the Masking under setting [1] is given as 2.5 points. Moreover, the Harmonizing under setting [2] was 1.

As to `OCCc1ccccc1` [Phenylethyl alcohol], under setting [1], the Masking worked out at 2.5 points. Moreover, the Harmonizing under setting [2] stood at 1.

In turn, `O=C(Cc1ccccc1)OCCc1ccccc1` [Phenylethyl phenyl acetate] yielded a Masking under setting [1] of 2. For the same molecule, under setting [2], the Harmonizing came to 0.

Molecule `O=C(OCCc1ccccc1)c1ccccc1O` [Phenylethyl salicylate] displayed a Masking under setting [1] of 1. Besides, the Harmonizing under setting [2] was −1.

`CC(=O)CCc1ccc(O)cc1` [Raspberry ketone, 4-(4-hydroxyphenyl)-2-butanone] registered a Masking under setting [1] of 0.5 points. Under setting [2], this molecule yielded a Harmonizing of −1.

The molecule `CC(C)=CC1CC(C)CCO1` (stereo not shown) [Rose oxide] displayed a Masking under setting [1] of 3. This molecule also registered a Harmonizing under setting [2] of 1.

Turning to `CC(=O)OC(c1ccccc1)C(Cl)(Cl)Cl` (stereo not shown) [Rosephenone, trichloromethyl phenyl carbinyl acetate], the Masking under setting [1] was determined as 1.5 points. Under setting [2], this molecule came in with a Harmonizing of 0.

Molecule `CC(=CCC1CC=C(C)C1(C)C)CO` (stereo not shown) [Sandalmysore core, 2-methyl-4-(2,2,3-trimethyl-3-cyclopentene-1-yl)-2-butene-1-ol] displayed a Masking under setting [1] of 2.5 points. For the same molecule, the Harmonizing under setting [2] was 1.

Under setting [1], `CC(=O)OC(C)c1ccccc1` (stereo not shown) [Styralyl acetate] registered a Masking of 3. The molecule further returned a Harmonizing under setting [2] of 1.

As to `CC(=O)OC(C)(C)C1CC=C(C)CC1` (stereo not shown) [Terpinyl acetate], under setting [1], the Masking came to 2. The molecule further came in with a Harmonizing under setting [2] of 0.

In the case of `CCC(C)CCCC(C)(C)O` (stereo not shown) [Tetrahydromyrcenol], the Masking under setting [1] stood at 2. Also, the Harmonizing under setting [2] is given as 0.

`CCOC(=O)C1C(C)CCCC1(C)C` (stereo not shown) [Thesaron, ethyl 2,2,6-trimethylcyclohexane carboxylate] returned a Masking under setting [1] of 2. Besides, under setting [2], the Harmonizing came to 0.

As to `Cc1ccc(C(C)C)c(O)c1` [Thymol], the Masking under setting [1] was 1. In addition, the Harmonizing under setting [2] is given as −1.

In the case of `CC(=O)OC1CC2CC1C1CC=CC21` (stereo not shown) [Tricyclodecenyl acetate], under setting [1], the Masking turned out to be 1.5 points. In addition, the Harmonizing under setting [2] amounted to 0.

Molecule `CCCCCCCCCCC=CC#N` [Tridecene-2-nitrile] came in with a Masking under setting [1] of 1.5 points. Besides, under setting [2], the Harmonizing is recorded as 0.

As to `CC1=CC(C)C(C=O)CC1` (stereo not shown) [Tripral, Dimethyl tetrahydrobenzaldehyde], the Masking under setting [1] stood at 3. Besides, the Harmonizing under setting [2] was 1.

`CC(=O)C1=C(C)[C@@H]2C[C@@]3(C1)[C@H](C)CC[C@H]3C2(C)C` [Woodyflor, acetylcedrene]: the Masking under setting [1] came to 1.5 points. The molecule further gave a Harmonizing under setting [2] of −1.

Regarding `CC/C=C\CCOC(C)=O` [cis-3-Hexenyl acetate], under setting [1], the Masking worked out at 3. This molecule also gave a Harmonizing under setting [2] of 1.

The molecule `CC/C=C\CCOC(=O)c1ccccc1O` [cis-3-Hexenyl salicylate] registered a Masking under setting [1] of 2. For the same molecule, the Harmonizing under setting [2] turned out to be 1.

`CC/C=C\CC1=C(C)CCC1=O` [cis-Jasmone] gave a Masking under setting [1] of 1. Under setting [2], this molecule yielded a Harmonizing of −1.

Turning to `CC(C)[C@@H]1CC[C@@H](C)C[C@H]1O` [l-Menthol], under setting [1], the Masking is reported as 1. The molecule also showed a Harmonizing under setting [2] of −1.

Source of the values: patent US20060159639A1, “Pseudo body odor composition and perfume composition for inhibiting body odor” (priority 2003, published 2006).
